Numbered stars: 1 amine (or outer) side, 2 acyl side, 3 side chain; on linkers, the order of the positions; unused ones are H or OH. Square brackets hold non-standard residues; d marks the D form. Peptide text beside a SMILES is read from it. * marks the point of attachment. X1 = CC(N[*:1])C(=O)C(F)(F)C(=O)[*:2]; Boc = CC(C)(C)OC(=O)*
How the values were obtained:
[1] = molecular target: SAPK2/p38 (Homo sapiens, UniProt Q16539); details: CK1 and ALK5 inhibitor versus SAPK2/p38; cited from earlier work
Sequence of SAPK2/p38 (Q16539 whole entry, canonical isoform): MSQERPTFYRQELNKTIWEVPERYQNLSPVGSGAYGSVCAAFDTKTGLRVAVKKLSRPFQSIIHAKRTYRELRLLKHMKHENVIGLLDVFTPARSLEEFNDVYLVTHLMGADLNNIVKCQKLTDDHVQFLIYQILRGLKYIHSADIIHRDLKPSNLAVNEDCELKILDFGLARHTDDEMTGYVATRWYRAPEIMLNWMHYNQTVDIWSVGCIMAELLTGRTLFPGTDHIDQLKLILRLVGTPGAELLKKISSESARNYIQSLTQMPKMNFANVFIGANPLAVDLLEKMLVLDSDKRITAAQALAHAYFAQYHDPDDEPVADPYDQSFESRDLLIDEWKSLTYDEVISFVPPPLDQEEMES

[2] = test system: histone deacetylases (HDACs); details: isoform not stated; read-out: IC50 (histone deacetylase inhibition); cited from earlier work
[3] = test system: iMPC-EPCs; assay: Expansion of iMPC-EPC colonies
[4] = molecular target: CYP2D6 (Homo sapiens, UniProt P10635); details: 2 mg/kg debrisoquine by gavage; mice repopulated with iMPC-Heps or aHeps
Sequence of CYP2D6 (P10635 whole entry): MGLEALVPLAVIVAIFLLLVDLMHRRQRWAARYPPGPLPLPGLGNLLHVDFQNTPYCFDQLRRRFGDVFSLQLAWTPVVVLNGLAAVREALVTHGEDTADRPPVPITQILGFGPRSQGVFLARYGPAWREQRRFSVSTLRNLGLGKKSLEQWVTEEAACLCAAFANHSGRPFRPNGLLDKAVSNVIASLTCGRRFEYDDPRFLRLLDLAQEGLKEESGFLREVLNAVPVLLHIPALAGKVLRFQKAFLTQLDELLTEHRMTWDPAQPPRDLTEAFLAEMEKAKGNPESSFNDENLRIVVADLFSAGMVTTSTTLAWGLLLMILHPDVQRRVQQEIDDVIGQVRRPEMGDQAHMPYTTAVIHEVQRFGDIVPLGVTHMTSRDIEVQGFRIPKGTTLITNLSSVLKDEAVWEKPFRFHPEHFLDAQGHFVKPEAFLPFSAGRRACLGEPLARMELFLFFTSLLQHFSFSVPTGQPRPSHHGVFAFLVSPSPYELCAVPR
Excerpt: Scale bar=100 μm. […] Scale bars=100 μm. […] Scale bars=100 μm.

[5] = test system: iMPC-EPCs; assay: Hepatocyte differentiation of iMPC-EPCs, ALB gene expression by qRT-PCR; details: day 18 of hepatocyte specification; particularly when applied together
Description: Error bars represent SEM of technical replicates (n=3).
For qRT-PCR analysis, total RNA was extracted using the miRNeasy Mini Kit (Qiagen) or RNeasy Plus Mini Kit in combination with QIAshredder (Qiagen). First-strand reverse transcription was performed with 0.5-1 μg RNA using the iScript cDNA Synthesis Kit (BioRad) or qScript cDNA Supermix (Quanta Biosciences). qRT-PCR was performed using PerfeCTa SYBR Green SuperMix (Quanta) or iQ SYBR Green Supermix (Bio-Rad) on an Applied Biosciences ViiA 7 Real-Time PCR System (Invitrogen). aHeps purchased from Yecuris or the Liver Tissue Cell Distribution System (LTCDS) were shipped overnight in suspension, centrifuged for 5 minutes at 300×g immediately after arrival, and stored as cell pellets at −80° C. prior to RNA extraction.
To improve hepatocyte differentiation, small molecules were screened for induction of ALB gene expression.

[6] = test system: Human newborn fibroblasts (CRL-2097, ATCC); assay: Reprogramming of newborn fibroblasts to endoderm, FOXA2-positive colonies by immunostaining; details: day 28; added to CHIR/Activin A reprogramming medium
Description: The small molecules tested included combinations of CHIR99021 (CH), dilauroyl phosphatidylcholine (DLPC), sodium butyrate (NaB), parnate (Par), and RG108 (RG). […] Medium containing Activin A was additionally supplemented with the indicated small molecules.
Standard immunostaining was carried out as previously reported. […] Nuclei were visualized by Hoechst (Sigma-Aldrich) staining. Images were captured using a Nikon Eclipse TE2000-U microscope.
Next, EGF and bFGF were replaced with Activin A to induce Nodal signaling and promote endoderm fate (see FIG. 1A). […] To improve the efficiency of endoderm differentiation, the cells were exposed to several small molecules.

[7] = molecular target: γ-secretase; details: for total β-amyloid; cited from earlier work
[8] = test system: presenilase; details: at higher concentrations (20-400 μM); cited from earlier work
[9] = molecular target: T1, calpain II (Homo sapiens, UniProt P17655); details: purified enzyme assay; read-out: IC50 against calpain II; cited from earlier work
T1 sequence (P17655 1-700): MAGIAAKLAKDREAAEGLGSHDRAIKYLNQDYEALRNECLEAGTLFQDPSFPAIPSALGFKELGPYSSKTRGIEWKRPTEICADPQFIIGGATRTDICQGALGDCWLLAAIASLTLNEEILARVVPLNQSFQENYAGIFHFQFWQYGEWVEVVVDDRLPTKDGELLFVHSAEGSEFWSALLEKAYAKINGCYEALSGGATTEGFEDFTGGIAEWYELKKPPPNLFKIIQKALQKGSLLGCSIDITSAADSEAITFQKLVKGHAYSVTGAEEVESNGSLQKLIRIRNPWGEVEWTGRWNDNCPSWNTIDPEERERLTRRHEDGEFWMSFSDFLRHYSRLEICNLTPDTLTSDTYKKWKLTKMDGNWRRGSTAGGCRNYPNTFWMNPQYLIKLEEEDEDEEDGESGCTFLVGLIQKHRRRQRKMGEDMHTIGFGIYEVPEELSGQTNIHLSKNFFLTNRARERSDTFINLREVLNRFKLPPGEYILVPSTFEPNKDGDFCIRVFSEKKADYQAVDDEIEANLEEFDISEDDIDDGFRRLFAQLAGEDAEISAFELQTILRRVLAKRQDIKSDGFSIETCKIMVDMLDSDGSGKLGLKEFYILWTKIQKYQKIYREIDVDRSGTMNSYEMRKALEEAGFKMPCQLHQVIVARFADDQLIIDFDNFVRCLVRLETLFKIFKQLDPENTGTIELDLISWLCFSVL
T1 sequence (P04632 1-268 partner): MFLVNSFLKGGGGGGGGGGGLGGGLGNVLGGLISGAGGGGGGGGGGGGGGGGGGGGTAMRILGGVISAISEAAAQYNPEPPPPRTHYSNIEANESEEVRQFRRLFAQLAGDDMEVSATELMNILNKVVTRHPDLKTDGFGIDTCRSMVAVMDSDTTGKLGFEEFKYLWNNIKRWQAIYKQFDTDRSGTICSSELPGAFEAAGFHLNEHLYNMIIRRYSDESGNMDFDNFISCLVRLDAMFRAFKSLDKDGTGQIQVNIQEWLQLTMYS

[10] = test system: HDAC activity in HeLa extracts; details: read-out: IC50 for inhibition of HDAC activity; cited from earlier work

NC(=O)c1ccc(-c2nc(-c3ccc4c(c3)OCCO4)c(-c3ccccn3)[nH]2)cc1 [D 4476, 4-[4-(2,3-Dihydro-1,4-benzodioxin-6-yl)-5-(2-pyridinyl)-IH-imidazol-2-yl]benzamide]
selectivity over SAPK2/p38 [1]: greater than 20 fold

Nc1ccccc1NC(=O)c1ccc(CNC(=O)OCc2cccnc2)cc1 [MS-27-275, pyridin-3-ylmethyl-N-[[4-[(2-aminophenyl)carbamoyl]phenyl]methyl]carbamate]
IC50 [2]: 100 to 1000 nM

bFGF: basic fibroblast growth factor
iMPC-EPC colony size ([3]; EGF and bFGF added to CHIR99021 and A83-01): further increased

CC(/C=C/C(=O)NO)=C\[C@@H](C)C(=O)c1ccc(N(C)C)cc1 [Trichostatin A, (R,2E,4E)-6-(4-(dimethylamino)benzoyl)-N-hydroxy-4-methylhepta-2,4-dienamide]
IC50 [2]: ~1.8 nM

N=C(N)N1Cc2ccccc2C(O)C1 (stereo not shown) [4-hydroxydebrisoquine]
time of peak plasma level after gavage [4]: 1 h

Cc1c[nH]c(-c2cnc(NCCNc3ccc(C#N)cn3)nc2-c2ccc(Cl)cc2Cl)n1 [CHIR99021, 6-(2-(4-(2,4-dichlorophenyl)-5-(4-methyl-1H-imidazol-2-yl)pyrimidin-2-ylamino)ethylamino)nicotinonitrile]
iMPC-EPC colony size ([3]; CHIR99021 combined with A83-01): increased

Nc1ccccc1NC(=O)c1ccc(CNc2nccc(-c3cccnc3)n2)cc1 [MGCD0103, N-(2-aminophenyl)-4-[[(4-pyridin-3-ylpyrimidin-2-yl)amino]methyl]benzamide]
IC50 [2]: ~100 nM

Cc1cccc(-c2nn(C(=S)Nc3ccccc3)cc2-c2ccnc3ccccc23)n1 [A83-01, 3-(6-Methyl-2-pyridinyl)-N-phenyl-4-(4-quinolinyl)-1H-pyrazole-1-carbothioamide]
iMPC-EPC colony size ([3]; CHIR99021 combined with A83-01): increased | induction of ALB gene expression [5]: effective

CC1(C)NC(=O)C(CCCCCC(=O)[C@H]2CO2)NC(=O)C2CCCN2C(=O)[C@@H](Cc2ccccc2)NC1=O (stereo partly drawn) [Chlamydocin, (3R)-3-benzyl-6,6-dimethyl-9-[6-[(2R)-oxiran-2-yl]-6-oxohexyl]-1,4,7,10-tetrazabicyclo[10.3.0]pentadecane-2,5,8,11-tetrone]
IC50 [2]: ~0.15 nM

CCCCCCCCCCCC(=O)OC[C@H](COP(=O)([O-])OCC[N+](C)(C)C)OC(=O)CCCCCCCCCCC [Dilauroyl phosphatidylcholine]
increase in the number of FOXA2-positive colonies [6]: 2 fold

C[C@H](NC(=O)Cc1cc(F)cc(F)c1)C(=O)N[C@H]1N=C(c2ccccc2)c2ccccc2N(C)C1=O [Compound E]
IC50 [7]: 0.3 nM | induction of ALB gene expression [5]: effective | effect on presenilase activity [8]: only weakly affects

CCC(C)C(NC(=O)C(NC(=O)OC(C)(C)C)C(C)C)C(=O)NC(C)C(=O)C(F)(F)C(=O)NC(C(=O)NC(C(=O)OC)C(C)CC)C(C)C (stereo not shown) [Gamma-Secretase Inhibitor II] (Boc-VI[X1]VI-OMe; configuration not given here)
IC50 [9]: 100000 nM

Nc1ccccc1NC(=O)CCCCCCC(=O)Nc1ccccc1 [BML-210, N1-(2-aminophenyl)-N8-phenyl-octanediamide]
IC50 [10]: ~80000 nM

Reference: patent publication US9512406B2, “Generating hepatocytes” (The J. David Gladstone Institutes, a testamentary trust …, priority 2013, dated 2016)
